Measurements: patent US11753407B2, “Compounds for treating spinal muscular atrophy” (PTC Therapeutics, Inc., priority 2012, dated 2023)

Tests used:
[1] = system: Smn protein in SMA patient fibroblast cells (GM03813); test: Smn protein assay in cultured cells (SMN HTRF); format: cell-based, human; conditions: SMA patient fibroblast cells, 48 hours; for EC1.5x for Smn protein expression: 7-point concentration curve, SMN HTRF, concentration producing 1.5 times Smn protein vs DMSO vehicle control; for maximum fold (Fold) increase of Smn protein: 7-point concentration data, fold relative to vehicle control
Procedure, shortened: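 SMA patient fibroblasts (5,000 cells/well, DMEM-10% FBS) were treated for 48 h at 37 °C with a 7-point, 3.16-fold dilution series in triplicate. RIPA lysates were probed by HTRF (anti-SMN d2/kryptate, overnight, room temperature), reading 665/620 nm. EC1.5× is the concentration giving 1.5-fold Smn over DMSO vehicle.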

[2] = system: SMN2 minigene mRNA (SMN2-A minigene) in HEK293H cells; test: SMN2 minigene mRNA splicing RT-qPCR assay in cultured cells; format: cell-based, human; conditions: Homo sapiens, HEK293-H; concentration increasing full length SMN2 mRNA 1.5-fold relative to vehicle-treated cells; HEK293H cells with SMN2-A minigene, 24 hours, 7-point concentration data; read-out: EC1.5x for production of full length SMN2 mRNA
Procedure, shortened: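 HEK293H cells stably carrying the SMN2-A minigene were treated for 24 h at 37 °C with a 7-point, 3.16-fold dilution series of compound. Multiplex RT-qPCR measured exon 7-containing minigene FL mRNA against GAPDH, expressed relative to vehicle by modified ΔΔCt; the EC1.5× is the concentration giving a 1.5-fold increase.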

Compound: CCc1nc(C)cn2nc(-c3cc(=O)n4cc(N5C[C@@H](C)N[C@@H](C)C5)ccc4n3)cc12 [Compound 633, 7-[(3R,5S)-3,5-dimethylpiperazin-1-yl]-2-(4-ethyl-6-methylpyrazolo[1,5-a]pyrazin-2-yl)-4H-pyrido[1,2-a]pyrimidin-4-one]
- EC1.5x for Smn protein expression [1]: **** (an EC1.5x≤0.3 μM is indicated by four stars (****))
- maximum fold (Fold) increase of Smn protein [1]: ***** (a fold increase >1.65 is indicated by five stars (*****))
- EC (1.5-fold increase) [2]: < 0.1 µM
- melting point: 258 to 260 °C

Compound: CCc1nc(C)cn2nc(-c3cc(=O)n4cc(N5CCC(N6CCCC6)CC5)ccc4n3)cc12 [Compound 634, 2-(4-ethyl-6-methylpyrazolo[1,5-a]pyrazin-2-yl)-7-[4-(pyrrolidin-1-yl)piperidin-1-yl]-4H-pyrido[1,2-a]pyrimidin-4-one]
- EC1.5x for Smn protein expression [1]: **** (an EC1.5x≤0.3 μM is indicated by four stars (****))
- maximum fold (Fold) increase of Smn protein [1]: ***** (a fold increase >1.65 is indicated by five stars (*****))
- EC (1.5-fold increase) [2]: < 0.1 µM
- melting point: 229 to 232 °C

Compound: CCc1nc(C)cn2nc(-c3cc(=O)n4cc(N5CCN[C@@H](C)C5)ccc4n3)cc12 [Compound 635, 2-(4-ethyl-6-methylpyrazolo[1,5-a]pyrazin-2-yl)-7-[(3S)-3-methylpiperazin-1-yl]-4H-pyrido[1,2-a]pyrimidin-4-one]
- EC1.5x for Smn protein expression [1]: **** (an EC1.5x≤0.3 μM is indicated by four stars (****))
- maximum fold (Fold) increase of Smn protein [1]: ***** (a fold increase >1.65 is indicated by five stars (*****))
- EC (1.5-fold increase) [2]: < 0.1 µM
- melting point: 202 to 204 °C

Compound: CCc1nc(C)cn2nc(-c3cc(=O)n4cc(N5CCCN(C)CC5)ccc4n3)cc12 [Compound 636, 2-(4-ethyl-6-methylpyrazolo[1,5-a]pyrazin-2-yl)-7-(4-methyl-1,4-diazepan-1-yl)-4H-pyrido[1,2-a]pyrimidin-4-one]
- EC1.5x for Smn protein expression [1]: **** (an EC1.5x≤0.3 μM is indicated by four stars (****))
- maximum fold (Fold) increase of Smn protein [1]: ***** (a fold increase >1.65 is indicated by five stars (*****))
- EC (1.5-fold increase) [2]: < 0.1 µM
- melting point: 175 to 180 °C

Compound: CCc1cc(-c2cc(=O)n3cc(N4CCNCC4)ccc3n2)cn2cc(C)nc12 [Compound 637, 2-(8-ethyl-2-methylimidazo[1,2-a]pyridin-6-yl)-7-(piperazin-1-yl)-4H-pyrido[1,2-a]pyrimidin-4-one]
- EC1.5x for Smn protein expression [1]: **** (an EC1.5x≤0.3 μM is indicated by four stars (****))
- maximum fold (Fold) increase of Smn protein [1]: ***** (a fold increase >1.65 is indicated by five stars (*****))
- EC (1.5-fold increase) [2]: < 0.1 µM
- melting point: 264 to 271 °C

Compound: CCc1cc(-c2cc(=O)n3cc(N4CCN[C@H](C)C4)ccc3n2)cn2cc(C)nc12 [Compound 638, 2-(8-ethyl-2-methylimidazo[1,2-a]pyridin-6-yl)-7-[(3R)-3-methylpiperazin-1-yl]-4H-pyrido[1,2-a]pyrimidin-4-one]
- EC1.5x for Smn protein expression [1]: **** (an EC1.5x≤0.3 μM is indicated by four stars (****))
- maximum fold (Fold) increase of Smn protein [1]: ***** (a fold increase >1.65 is indicated by five stars (*****))
- EC (1.5-fold increase) [2]: < 0.1 µM
- melting point: 230 to 234 °C

Compound: CCc1cc(-c2cc(=O)n3cc(N4CCN[C@@H](C)C4)ccc3n2)cn2cc(C)nc12 [Compound 639, 2-(8-ethyl-2-methylimidazo[1,2-a]pyridin-6-yl)-7-[(3S)-3-methylpiperazin-1-yl]-4H-pyrido[1,2-a]pyrimidin-4-one]
- EC1.5x for Smn protein expression [1]: **** (an EC1.5x≤0.3 μM is indicated by four stars (****))
- maximum fold (Fold) increase of Smn protein [1]: ***** (a fold increase >1.65 is indicated by five stars (*****))
- EC (1.5-fold increase) [2]: < 0.1 µM
- melting point: 232 to 236 °C

Compound: Cc1cn2nc(-c3cc(=O)n4cc(C5CCN(C(C)C)CC5)ccc4n3)cc2c(C)n1 [Compound 640, 2-(4,6-dimethylpyrazolo[1,5-a]pyrazin-2-yl)-7-[1-(propan-2-yl)piperidin-4-yl]-4H-pyrido[1,2-a]pyrimidin-4-one]
- EC1.5x for Smn protein expression [1]: **** (an EC1.5x≤0.3 μM is indicated by four stars (****))
- maximum fold (Fold) increase of Smn protein [1]: **** (a fold increase between >1.5 and ≤1.65 is indicated by four stars (****))
- EC (1.5-fold increase) [2]: < 0.1 µM
- melting point: 196 to 198 °C

Compound: Cc1cn2nc(-c3cc(=O)n4cc(C5CCN(C6CC6)CC5)ccc4n3)cc2c(C)n1 [Compound 641, 7-(1-cyclopropylpiperidin-4-yl)-2-(4,6-dimethylpyrazolo[1,5-a]pyrazin-2-yl)-4H-pyrido[1,2-a]pyrimidin-4-one]
- EC1.5x for Smn protein expression [1]: **** (an EC1.5x≤0.3 μM is indicated by four stars (****))
- maximum fold (Fold) increase of Smn protein [1]: ***** (a fold increase >1.65 is indicated by five stars (*****))
- EC (1.5-fold increase) [2]: < 0.1 µM
- melting point: 180 to 183 °C

Compound: Cc1cn2nc(-c3cc(=O)n4cc(C5CCN(C6CCC6)CC5)ccc4n3)cc2c(C)n1 [Compound 642, 7-(1-cyclobutylpiperidin-4-yl)-2-(4,6-dimethylpyrazolo[1,5-a]pyrazin-2-yl)-4H-pyrido[1,2-a]pyrimidin-4-one]
- EC1.5x for Smn protein expression [1]: **** (an EC1.5x≤0.3 μM is indicated by four stars (****))
- maximum fold (Fold) increase of Smn protein [1]: ***** (a fold increase >1.65 is indicated by five stars (*****))
- EC (1.5-fold increase) [2]: < 0.1 µM
- melting point: 189 to 191 °C

Compound: CCc1nc(C)cn2nc(-c3cc(=O)n4cc(N5CCN(C(C)C)[C@H](C)C5)ccc4n3)cc12 [Compound 643, 2-(4-ethyl-6-methylpyrazolo[1,5-a]pyrazin-2-yl)-7-[(3R)-3-methyl-4-(propan-2-yl)piperazin-1-yl]-4H-pyrido[1,2-a]pyrimidin-4-one]
- EC1.5x for Smn protein expression [1]: *** (an EC1.5× between >0.3 μM and ≤1 μM is indicated by three stars (***))
- maximum fold (Fold) increase of Smn protein [1]: ***** (a fold increase >1.65 is indicated by five stars (*****))
- EC (1.5-fold increase) [2]: 0.1 to 0.3 µM
- melting point: 242 to 244 °C

Compound: CCc1nc(C)cn2nc(-c3cc(=O)n4cc(N5CCN(C6CC6)[C@H](C)C5)ccc4n3)cc12 [Compound 644, 7-[(3R)-4-cyclopropyl-3-methylpiperazin-1-yl]-2-(4-ethyl-6-methylpyrazolo[1,5-a]pyrazin-2-yl)-4H-pyrido[1,2-a]pyrimidin-4-one]
- EC1.5x for Smn protein expression [1]: *** (an EC1.5× between >0.3 μM and ≤1 μM is indicated by three stars (***))
- maximum fold (Fold) increase of Smn protein [1]: ***** (a fold increase >1.65 is indicated by five stars (*****))
- EC (1.5-fold increase) [2]: 0.1 to 0.3 µM
- melting point: 244 to 247 °C

Compound: CCc1nc(C)cn2nc(-c3cc(=O)n4cc(N5CCN(C6CCC6)[C@H](C)C5)ccc4n3)cc12 [Compound 645, 7-[(3R)-4-cyclobutyl-3-methylpiperazin-1-yl]-2-(4-ethyl-6-methylpyrazolo[1,5-a]pyrazin-2-yl)-4H-pyrido[1,2-a]pyrimidin-4-one]
- EC1.5x for Smn protein expression [1]: **** (an EC1.5x≤0.3 μM is indicated by four stars (****))
- maximum fold (Fold) increase of Smn protein [1]: ***** (a fold increase >1.65 is indicated by five stars (*****))
- EC (1.5-fold increase) [2]: < 0.1 µM
- melting point: 261 to 264 °C

Compound: CCc1nc(C)cn2nc(-c3cc(=O)n4cc(N5CCN(C6COC6)[C@H](C)C5)ccc4n3)cc12 [Compound 646, 2-(4-ethyl-6-methylpyrazolo[1,5-a]pyrazin-2-yl)-7-[(3R)-3-methyl-4-(oxetan-3-yl)piperazin-1-yl]-4H-pyrido[1,2-a]pyrimidin-4-one]
- EC1.5x for Smn protein expression [1]: ** (an EC1.5× between >1 μM and ≤3 μM is indicated by two stars (**))
- maximum fold (Fold) increase of Smn protein [1]: ***** (a fold increase >1.65 is indicated by five stars (*****))
- EC (1.5-fold increase) [2]: 0.3 to 1 µM
- melting point: 216 to 219 °C

Compound: CCc1cc(-c2cc(=O)n3cc(N4CCN(CCO)CC4)ccc3n2)cn2cc(C)nc12 [Compound 647, 2-(8-ethyl-2-methylimidazo[1,2-a]pyridin-6-yl)-7-[4-(2-hydroxyethyl)piperazin-1-yl]-4H-pyrido[1,2-a]pyrimidin-4-one]
- EC1.5x for Smn protein expression [1]: **** (an EC1.5x≤0.3 μM is indicated by four stars (****))
- maximum fold (Fold) increase of Smn protein [1]: ***** (a fold increase >1.65 is indicated by five stars (*****))
- EC (1.5-fold increase) [2]: < 0.1 µM
- melting point: 248 to 253 °C

Compound: CCc1cc(-c2cc(=O)n3cc(N4CCN(C5CCC5)CC4)ccc3n2)cn2cc(C)nc12 [Compound 648, 7-(4-cyclobutylpiperazin-1-yl)-2-(8-ethyl-2-methylimidazo[1,2-a]pyridin-6-yl)-4H-pyrido[1,2-a]pyrimidin-4-one]
- EC1.5x for Smn protein expression [1]: **** (an EC1.5x≤0.3 μM is indicated by four stars (****))
- maximum fold (Fold) increase of Smn protein [1]: ***** (a fold increase >1.65 is indicated by five stars (*****))
- EC (1.5-fold increase) [2]: < 0.1 µM
- melting point: 274 to 279 °C

Compound: CCc1cc(-c2cc(=O)n3cc(N4CCN(CCO)[C@H](C)C4)ccc3n2)cn2cc(C)nc12 [Compound 649, 2-(8-ethyl-2-methylimidazo[1,2-a]pyridin-6-yl)-7-[(3R)-4-(2-hydroxyethyl)-3-methylpiperazin-1-yl]-4H-pyrido[1,2-a]pyrimidin-4-one]
- EC1.5x for Smn protein expression [1]: **** (an EC1.5x≤0.3 μM is indicated by four stars (****))
- maximum fold (Fold) increase of Smn protein [1]: ***** (a fold increase >1.65 is indicated by five stars (*****))
- EC (1.5-fold increase) [2]: < 0.1 µM
- melting point: 217 to 220 °C
